From patent publication EP1484329A1, “Indole derivatives with apoptosis inducing activity” (Zentaris GmbH, priority 2003, dated 2004)
Where two headings read alike, the source gives them in different places.

Experiments:
[1] = system: humanen Xenograft-Modellen; test: In vivo activity in xenograft models; parameters: species or system human; details: Hautkrebs, Nierenzellkarzinom und Brustkrebs
Excerpt: Die in vivo Aktivität der Verbindung 2 wurde an verschiedenen humanen Xenograft-Modellen überprüft.

[2] = format: in vivo, Mäuse (CD-1 Mausstamm); details: for Effekte 7 Tage nach Gabe / Effekte 1 h nach Gabe / Effekte 2 h nach Gabe / Effekte 24 h nach Gabe / Temp. (rektal): single dose; for Temp. (rektal): measured 1 hour after application
Procedure: Zur Beurteilung und Abschätzung möglicher Nebenwirkungen (neurodegenerative, phsychotrope Effekte etc.) bzw. toxischer Effekte ausgehend von der Verbindung 2 wurden Mäuse (CD-1 Mausstamm) in einem modifizierten Irwin-Grid Modell bei einmaliger Gabe (5, 10 und 20 mg/kg; p.o.) über eine Zeitdauer von 7 Tagen beobachtet (S. Irwin et al. Psychopharmacologia 1968, 13, 222-257). Die Ergebnisse hierzu werden in nachfolgender Tabelle 7 gezeigt: Tabelle 7: […]

SMILES: O=C(Nc1ccc2ncccc2c1)C(=O)c1cn(Cc2ccc(Cl)cc2)c2ccccc12 [Verbindung 2, 2-[1-(4-Chlor-benzyl)-1 H-indol-3-yl]-2-oxo-N-chinolin-6-yl-acetamid]
- Tumorwachstum in Xenograft-Modellen [1]: das Tumorwachstum in verschiedenen Xenograft-Modellen hemmt
- Effekte 7 Tage nach Gabe ([2]; 5 mg/kg p.o.): Kein Effekt
- Effekte 1 h nach Gabe ([2]; 5 mg/kg p.o.): Kein Effekt
- Effekte 2 h nach Gabe ([2]; 5 mg/kg p.o.): Kein Effekt
- Effekte 24 h nach Gabe ([2]; 5 mg/kg p.o.): 2/6 Durchfall
- Temp. (rektal) ([2]; 5 mg/kg p.o.): 37.5 ± 0.2
- Effekte 7 Tage nach Gabe ([2]; 10 mg/kg p.o.): Kein Effekt
- Effekte 1 h nach Gabe ([2]; 10 mg/kg p.o.): 1/6 Aufregung 1/6 Hyperreaktivität 1/6 Reizbarkeit 2/6 Berührungsrea ktivität 1/6 Stimmfähigkeit
- Effekte 2 h nach Gabe ([2]; 10 mg/kg p.o.): 2/6 Schwanzhypert onie 1/6 Hyperreaktivität 1/6 Reizbarkeit 1/6 Berührungsrea ktivität 1/6 Stimmfähigkeit
- Effekte 24 h nach Gabe ([2]; 10 mg/kg p.o.): Kein Effekt
- Temp. (rektal) ([2]; 10 mg/kg p.o.): 37.1 ± 0.1
- Effekte 7 Tage nach Gabe ([2]; 20 mg/kg p.o.): Kein Effekt
- Effekte 1 h nach Gabe ([2]; 20 mg/kg p.o.): Kein Effekt
- Effekte 2 h nach Gabe ([2]; 20 mg/kg p.o.): Kein Effekt
- Effekte 24 h nach Gabe ([2]; 20 mg/kg p.o.): 1/6 Durchfall
- Temp. (rektal) ([2]; 20 mg/kg p.o.): 37.4 ± 0.1
- toxische Effekte im modifizierten Irwin-Grid Test ([2]; single dose 5, 10 and 20mg/kg, overall conclusion): keine toxischen Effekte
